Results: publication PMC3144492 (Biochemistry, 2011)

System: SpUP
Settings: 50 mM phosphate (co-substrate), 50 mM HEPES, pH 7.5

O=c1ccn([C@@H]2O[C@H](CO)[C@@H](O)[C@H]2O)c(=O)[nH]1 [uridine]
Km: 171 ± 5 µM
